Laboratory results as given in EP0318859A2, “N-substituted mercaptopropanamide derivatives” (Dainippon Pharmaceutical Co., Ltd., priority 1987, dated 1989).

Experiments:
[1] = test system: Female Std:ddy mice; experiment: Analgesic activity (mouse phenylquinone writhing test); type: in vivo; settings: po, 30 minutes before i.p. phenylquinone, reduction in writhes greater than 50 % of vehicle control = effective, Litchfield and Wilcoxon, read-out: ED₅₀
Procedure: (1) Analgesic activity (mouse phenylquinone writhing test)
Female Std:ddy mice (weighing 18 - 22 g) were used. Each animal was given intraperitoneally 10 ml/kg of 0.03 % phenylquinone in 5 % aqueous ethanol, and the number of writhes was counted for 15 minutes, beginning 5 minutes after the injection of phenylquinone. Test compounds, suspended or dissolved in 0.5 % gum tragacanth aqueous solution, were given orally 30 minutes before the injection of phenylquinone. A reduction in writhes counts greater than 50 % of the vehicle control value was considered to be effective. The ED₅₀-value was calculated from the effective rate according to the method of Litchfield and Wilcoxon.

[2] = test system: enkephalinase; experiment: Enkephalinase inhibitory activity in vivo (potentiation of the analgesic activity of DAME, tail pressure pain); settings: p.o., 30 minutes before intracisternal DAME; pressure pain threshold measured 5 minutes after DAME; male Std:ddy mice
Procedure: (2) Enkephalinase inhibitory activity in vivo
(Potentiation of the analgesic activity of DAME)
Pressure pain was induced by pressing the tail of male Std:ddy mice (weighing 20 - 26 g) using an apparatus for pressure measurement. The pressure pain threshold (biting response) was measured as mm. Test compound, dissolved or suspended in 0.5 % gum tragacanth aqueous solution, was given orally 30 minutes before intracisternaly administration of D-Ala²-Met⁵-enkephalin (DAME). Five minutes after administration of DAME, the pressure pain threshold was measured, and the potentiation activity of test compounds on the analgesic effect of DAME was tested.

[3] = biological target: T1, enkephalinase (Rattus norvegicus, UniProt P07861); experiment: Enkephalinase inhibitory activity in vitro ([³H]-leucine-enkephalin degradation); type: biochemical, rats; settings: rat striatum enkephalinase; substrate [³H]-leucine-enkephalin 20 nM; 1 hour at 37°C; read-out: IC₅₀
T1 construct: Male Std:Wistar rats were decapitated and the striata were removed; from tissue; host or cells: rat striatum (membrane pellet, solubilised with 1 % Triton X-100, DEAE-cellulose fraction)
T1 sequence (P07861 1-750): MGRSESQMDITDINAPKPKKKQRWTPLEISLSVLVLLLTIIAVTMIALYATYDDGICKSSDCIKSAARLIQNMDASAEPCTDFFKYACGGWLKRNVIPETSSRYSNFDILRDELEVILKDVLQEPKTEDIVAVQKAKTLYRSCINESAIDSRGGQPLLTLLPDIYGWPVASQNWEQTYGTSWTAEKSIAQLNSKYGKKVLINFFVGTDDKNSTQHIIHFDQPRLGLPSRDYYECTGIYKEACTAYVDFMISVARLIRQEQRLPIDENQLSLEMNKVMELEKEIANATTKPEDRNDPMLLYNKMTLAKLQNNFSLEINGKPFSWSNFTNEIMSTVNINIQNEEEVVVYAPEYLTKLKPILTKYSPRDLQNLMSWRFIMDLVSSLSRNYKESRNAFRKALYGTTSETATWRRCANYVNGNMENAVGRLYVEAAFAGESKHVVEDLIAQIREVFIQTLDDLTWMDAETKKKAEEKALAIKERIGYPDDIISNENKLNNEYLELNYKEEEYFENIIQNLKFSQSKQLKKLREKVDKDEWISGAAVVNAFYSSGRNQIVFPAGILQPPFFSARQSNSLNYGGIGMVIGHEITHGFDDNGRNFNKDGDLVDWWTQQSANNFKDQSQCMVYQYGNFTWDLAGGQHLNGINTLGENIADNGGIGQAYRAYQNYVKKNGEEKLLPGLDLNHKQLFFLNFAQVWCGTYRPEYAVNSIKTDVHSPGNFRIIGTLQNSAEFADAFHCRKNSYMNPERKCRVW
Procedure: (3) Enkephalinase inhibitory activity in vitro
Enkephalin degrading enzymes were separated according to the method described by Gorenstein and Snyder (Life Science, 25, 2065 (1979)).
Male Std:Wistar rats were decapitated and the striata were removed. These were homogenized in 30 volumes of 50 mM Tris-HCl buffer (pH 7.4) and centrifuged for 15 minutes at 1,000 x g. The supernatant was centrifuged for 15 minutes at 50,000 x g. The pellet was washed three times with the same buffer and then suspended in 15 volumes of 50 mM Tris-HCl buffer (pH 7.4) containing 1 % Triton X-100, followed by incubation for 45 minutes at 37°C. After centrifugation for 1 hour at 100,000 x g, the supernatant was applied onto DEAE-cellulose ion exchange chromatography column. The fraction containing enkephalin dipeptidylcarboxypeptidase was used as enkephalinase sample.
(ii) Measurement of inhibitory activity
After preincubation of test compound and enkephalinase for 5 minutes at 37°C, [³H]-leucine-enkephalin (substrate) was added to the reaction mixture and then the mixture was incubated for 1 hour at 37°C (final volume: 100 µl, final concentration of substarate: 20 nM). Ice-cold 0.2N HCl was added to the mixture to stop the reaction. Substrate and metabolites were separated with TLC and Porapak Q® column by the method of Vogel and Alstein [FEBS Letters, 80, 332 (1977)]. Enzyme activity was estimated from the production rate of [³H]-Tyr-Gly-Gly. The IC₅₀-value of test compounds was calculated from the inhibitory rates, estimated from the difference between the enzyme activities in the absence and the presence of test compound.

Row | IC50 [3] [nM] | Structure (SMILES) | ED50 [1] [mg/kg] | ED₅₀ [2] [mg/kg]
1 | – | CC(=O)SCC(Cc1ccccc1)C(=O)Nc1cc(C)cc(C(=O)O)c1 (stereo not shown) [Example 1, 3-[(2-acetylthiomethyl-3-phenylpropionyl)amino]-5-methylbenzoic acid] | 22.3 | –
2 | 5.4 | Cc1cc(NC(=O)C(CS)Cc2ccccc2)cc(C(=O)O)c1 (stereo not shown) [Example 2, 3-[(2-mercaptomethyl-3-phenylpropionyl)amino]-5-methylbenzoic acid] | 16.6 | 20.2
3 | – | CC(=O)SCC(Cc1ccccc1)C(=O)Nc1cccc(C(=O)O)c1C (stereo not shown) [Example 3, 3-[(2-acetylthiomethyl-3-phenylpropionyl)amino]-2-methylbenzoic acid] | 21.6 | –
4 | 7.5 | Cc1c(NC(=O)C(CS)Cc2ccccc2)cccc1C(=O)O (stereo not shown) [Example 7, 3-[(2-mercaptomethyl-3-phenylpropionyl)amino]-2-methylbenzoic acid] | 17.9 | 38.3
5 | – | CCc1cc(NC(=O)C(CSC(C)=O)Cc2ccccc2)cc(C(=O)O)c1 (stereo not shown) [Example 64, 3-[(2-acetylthiomethyl-3-phenylpropionyl)amino]-5-ethylbenzoic acid] | 11 | 20.8
6 | 4.6 | CCc1cc(NC(=O)C(CS)Cc2ccccc2)cc(C(=O)O)c1 (stereo not shown) [Example 65, 3-[(2-mercaptomethyl-3-phenylpropionyl)amino]-5-ethylbenzoic acid] | 22.9 | –
7 | – | CC(=O)SCC(CC(C)C)C(=O)Nc1cccc(C(=O)O)c1C (stereo not shown) [Example 175, 3-[(2-acetylthiomethyl-4-methylpentanoyl)amino]-2-methylbenzoic acid] | 21.1 | –
8 | – | CC(=O)SCC(CC(C)C)C(=O)Nc1cc(C)cc(C(=O)O)c1 (stereo not shown) [Example 176, 3-[(2-acetylthiomethyl-4-methylpentanoyl)amino]-5-methylbenzoic acid] | 22.9 | –
9 | 8.4 | CC(C)CC(CS)C(=O)Nc1cccc(C(=O)O)c1 (stereo not shown) [Example 186, 3-[(2-mercaptomethyl-4-methylpentanoyl)amino]benzoic acid] | 15 | –
10 | 7.8 | Cc1c(NC(=O)C(CS)CC(C)C)cccc1C(=O)O (stereo not shown) [Example 187, 3-[(2-mercaptomethyl-4-methylpentanoyl)amino]-2-methylbenzoic acid] | 20.1 | –
11 | – | O=C(O)CNC(=O)C(CS)Cc1ccccc1 (stereo not shown) [Thiorphan, [(D,L)-2-mercaptomethyl-3-phenylpropionyl]glycine, reference compound] | 137 | –
